Measured values: patent US20240140991A1, “ANTIBIOTIC NATURAL PRODUCT ANALOGUES” (THE QUEEN'S UNIVERSITY OF BELFAST, priority 2021, published 2024)
≈ marks a conversion by molar mass, not a printed value. Positions of bridges follow the written chain, without caps; N, C: chain ends. Non-standard residues stand in square brackets, D forms with d. Residues, ends and D or L forms follow the SMILES beside them. ξ: configuration not given here. *: point of attachment. Octanoyl(7-Me) = CC(C)CCCCCC(=O)*; Hexanoyl(4ξ-Me) = CCC(C)CCC(=O)*; dOrn = NCCC[C@@H](N)C(=O)O; Orn = NCCC[C@H](N)C(=O)O; Dap = NC[C@H](N)C(=O)O; Alloc = C=CCOC(=O)*; OAll = C=CCO*

test system: Escherichia coli ATCC 25922; type: cell-based; conditions: ATCC 25922
Procedure: Minimum inhibitory concentration (MIC) was determined by broth microdilution according to CLSI guidelines. Blood agar plates were inoculated with glycerol stocks of Escherichia coli ATCC 25922, E. coli ATCC 25922 MCR-1, E. coli MCR-1 (clinical isolate from Utrecht Medical Center, NL), E. coli EQAS MCR-2 (clinical isolate from Wageningen University and Research, NL), Kiebsielia pneumoniae ATCC 11228, K. pneumoniae ATCC 13883, K. pneumonia 2048 (clinical isolate from Vrije Universiteit Amsterdam Medical Center, NL), K. pneumonia JS-123 (clinical isolate from Utrecht Medical Center, NL), Acinetobacter baumannii ATCC 17961, A. baumannil ATCC 17978, A. baumannii 2018-006 (clinical isolate from Rijksinstituut voor Volksgezondheid en Milieu, NL), A. baumannii MDR (clinical isolate from Vrije Universiteit Amsterdam Medical Center, NL), Pseudomonas aeruginosa ATCC 27853, P. aeruginosa PAO1, P. aeruginosa NRZ-03961 (Reference strain from Das Nationale Referenzzentrum für gramnegative Krankenhauserreger, DE), P. aeruginosa M-120 (clinical isolate from Leiden University Medical Center, NL) and Staphylococcus aureus USA300 (clinical isolate from Texas Children's Hospitalm, USA). E. coli 25922 MCR1 was grown on LB agar supplemented with kanamycin. The inoculated agar plates were then incubated for 16 hours at 37° C. Individually grown colonies were subsequently used to inoculate 3 mL aliquots of TSB that were then incubated at 37° C. with shaking at 220 rpm. In parallel, the compounds to be assessed were serially diluted with Mueller-Hinton broth (MHB) in polypropylene 96-well plates (50 μL in each well). Once the OD600 of the bacterial suspensions reached 0.5, the bacteria were diluted with MHB (final concentration 2×10^5 CFU mL^−1) and added to the microplates containing the test compounds (50 μL to each well, final volume: 100 μL). The well-plates were sealed with an adhesive membrane and after 16 hours of incubation at 37° C. with shaking at 220 rpm the wells were visually inspected for bacterial growth. MIC values were defined as the lowest concentration of the compound that prevented visible growth of bacteria.

Compound	Minimum inhibitory concentration (MIC) [µg/mL]
C=CCOC(=O)CC[C@H](NC(=O)[C@H](Cc1c[nH]c2ccccc12)NC(=O)[C@@H](CCCN)NC(=O)CNC(=O)[C@H](CCCN)NC(=O)[C@@H](CCCN)NC(=O)[C@@H](Cc1c[nH]c2ccccc12)NC(=O)[C@@H](Cc1ccc(O)cc1)NC(=O)[C@@H](CO)NC(=O)CCCCCC(C)C)C(=O)N[C@H](C(=O)N[C@@H](CC(N)=O)C(=O)NCC(=O)NCC(N)=O)[C@@H](C)CC [Glu(OAll)9-CONH2] ({Octanoyl(7-Me)}-[dS][dY][dW][dOrn][Orn]G[dOrn]WE(OAll)INGG-NH2)	8 (≈ 4.73 µM)
CC[C@H](C)[C@H](NC(=O)[C@H](CC(N)=O)NC(=O)[C@H](Cc1c[nH]c2ccccc12)NC(=O)[C@@H](CCCN)NC(=O)CNC(=O)[C@H](CCCN)NC(=O)[C@@H](CCCN)NC(=O)[C@@H](Cc1c[nH]c2ccccc12)NC(=O)[C@@H](Cc1ccc(O)cc1)NC(=O)[C@@H](CO)NC(=O)CCCCCC(C)C)C(=O)N[C@@H](CC(N)=O)C(=O)NCC(=O)NCC(N)=O [Asn9-CONH2] ({Octanoyl(7-Me)}-[dS][dY][dW][dOrn][Orn]G[dOrn]WNINGG-NH2)	4 (≈ 2.45 µM)
CCC(C)CCC(=O)N[C@H](CO)C(=O)N[C@H](Cc1ccc(O)cc1)C(=O)N[C@H](Cc1c[nH]c2ccccc12)C(=O)N[C@H](CCCN)C(=O)N[C@@H](CCCN)C(=O)NCC(=O)N[C@H](CCCN)C(=O)N[C@@H](Cc1c[nH]c2ccccc12)C(=O)N[C@@H]1C(=O)N[C@@H]([C@@H](C)CC)C(=O)NCC(=O)N[C@@H](CO)C(=O)NCC(=O)O[C@@H]1C (stereo partly shown) [Compound R1] ({Hexanoyl(4ξ-Me)}-[dS][dY][dW][dOrn][Orn]G[dOrn]WTIGSG; ester 9-C; N-terminus assumed)	2 (≈ 1.29 µM)
C=CCOC(=O)NC[C@H](NC(=O)[C@H](Cc1c[nH]c2ccccc12)NC(=O)[C@@H](CCCN)NC(=O)CNC(=O)[C@H](CCCN)NC(=O)[C@@H](CCCN)NC(=O)[C@@H](Cc1c[nH]c2ccccc12)NC(=O)[C@@H](Cc1ccc(O)cc1)NC(=O)[C@@H](CO)NC(=O)CCCCCC(C)C)C(=O)N[C@H](C(=O)N[C@@H](CC(N)=O)C(N)=O)[C@@H](C)CC [ΔG12-G13-Dap(Alloc)9-isoC9] ({Octanoyl(7-Me)}-[dS][dY][dW][dOrn][Orn]G[dOrn]W[Dap](Alloc)IN-NH2)	4 (≈ 2.54 µM)
CC[C@H](C)[C@H](NC(=O)[C@@H](NC(=O)[C@H](Cc1c[nH]c2ccccc12)NC(=O)[C@@H](CCCN)NC(=O)CNC(=O)[C@H](CCCN)NC(=O)[C@@H](CCCN)NC(=O)[C@@H](Cc1c[nH]c2ccccc12)NC(=O)[C@@H](Cc1ccc(O)cc1)NC(=O)[C@@H](CO)NC(=O)CCCCCC(C)C)[C@@H](C)O)C(=O)N[C@@H](CC(N)=O)C(=O)NCC(=O)N[C@@H](C)C(N)=O [Ala13 (Gly→Ala), FA-sywoOGoWTINGA-CONH2] ({Octanoyl(7-Me)}-[dS][dY][dW][dOrn][Orn]G[dOrn]WTINGA-NH2)	4 (≈ 2.45 µM)
CC[C@H](C)[C@H](NC(=O)[C@@H](NC(=O)[C@H](Cc1c[nH]c2ccccc12)NC(=O)[C@@H](CCCN)NC(=O)CNC(=O)[C@H](CCCN)NC(=O)[C@@H](CCCN)NC(=O)[C@@H](Cc1c[nH]c2ccccc12)NC(=O)[C@@H](Cc1ccc(O)cc1)NC(=O)[C@@H](CO)NC(=O)CCCCCC(C)C)[C@@H](C)O)C(=O)N[C@@H](CC(N)=O)C(=O)NCC(N)=O [ΔG13, FA-sywoOGoWTING-CONH2] ({Octanoyl(7-Me)}-[dS][dY][dW][dOrn][Orn]G[dOrn]WTING-NH2)	2 (≈ 1.28 µM)
CCC(C)CCC(=O)N[C@H](CO)C(=O)N[C@H](Cc1ccc(O)cc1)C(=O)N[C@H](Cc1c[nH]c2ccccc12)C(=O)N[C@H](CCCN)C(=O)N[C@@H](CCCN)C(=O)NCC(=O)N[C@H](CCCN)C(=O)N[C@@H](Cc1c[nH]c2ccccc12)C(=O)N[C@@H]1C(=O)N[C@@H]([C@@H](C)CC)C(=O)NCC(=O)N[C@H](CO)C(=O)NCC(=O)O[C@@H]1C (stereo partly shown) [Compound R2] ({Hexanoyl(4ξ-Me)}-[dS][dY][dW][dOrn][Orn]G[dOrn]WTIG[dS]G; ester 9-C; N-terminus assumed)	2 (≈ 1.29 µM)
CC[C@H](C)[C@H](NC(=O)[C@@H](NC(=O)[C@H](Cc1c[nH]c2ccccc12)NC(=O)[C@@H](CCCN)NC(=O)CNC(=O)[C@H](CCCN)NC(=O)[C@@H](CCCN)NC(=O)[C@@H](Cc1c[nH]c2ccccc12)NC(=O)[C@@H](Cc1ccc(O)cc1)NC(=O)[C@@H](CO)NC(=O)CCCCCC(C)C)[C@@H](C)O)C(=O)N[C@@H](CC(N)=O)C(=O)N[C@@H](C)C(=O)NCC(N)=O [Ala12 (Gly→Ala), FA-sywoOGoWTINAG-CONH2] ({Octanoyl(7-Me)}-[dS][dY][dW][dOrn][Orn]G[dOrn]WTINAG-NH2)	4 (≈ 2.45 µM)
CCC(C)CCC(=O)N[C@H](CO)C(=O)N[C@H](Cc1ccc(O)cc1)C(=O)N[C@H](Cc1c[nH]c2ccccc12)C(=O)N[C@H](CCCN)C(=O)N[C@@H](CCCN)C(=O)NCC(=O)N[C@H](CCCN)C(=O)N[C@@H](Cc1c[nH]c2ccccc12)C(=O)N[C@@H]1C(=O)N[C@@H]([C@@H](C)CC)C(=O)NCC(=O)N[C@H](CO)C(=O)N[C@H](C)C(=O)O[C@@H]1C (stereo partly shown) [Compound R8] ({Hexanoyl(4ξ-Me)}-[dS][dY][dW][dOrn][Orn]G[dOrn]WTIG[dS][dA]; ester 9-C; N-terminus assumed)	1 to 2
CC[C@H](C)[C@H](NC(=O)[C@@H](NC(=O)[C@H](Cc1c[nH]c2ccccc12)NC(=O)[C@@H](CCCN)NC(=O)CNC(=O)[C@H](CCCN)NC(=O)[C@@H](CCCN)NC(=O)[C@@H](Cc1c[nH]c2ccccc12)NC(=O)[C@@H](Cc1ccc(O)cc1)NC(=O)[C@@H](CO)NC(=O)CCCCCC(C)C)[C@@H](C)O)C(N)=O [ΔN11-G13, FA-sywoOGoWTI-CONH2] ({Octanoyl(7-Me)}-[dS][dY][dW][dOrn][Orn]G[dOrn]WTI-NH2)	4 (≈ 2.87 µM)
CC[C@H](C)[C@H](NC(=O)[C@@H](NC(=O)[C@H](Cc1c[nH]c2ccccc12)NC(=O)[C@@H](CCCN)NC(=O)CNC(=O)[C@H](CCCN)NC(=O)[C@@H](CCCN)NC(=O)[C@@H](C)NC(=O)[C@@H](Cc1ccc(O)cc1)NC(=O)[C@@H](CO)NC(=O)CCCCCC(C)C)[C@@H](C)O)C(=O)N[C@@H](CC(N)=O)C(=O)NCC(=O)NCC(N)=O [Ala3 (D-Trp→D-Ala), FA-syaoOGoWTINGG-CONH2] ({Octanoyl(7-Me)}-[dS][dY][dA][dOrn][Orn]G[dOrn]WTINGG-NH2)	16 (≈ 10.6 µM)
CC(C)CCCCCC(=O)N[C@H](CO)C(=O)N[C@H](Cc1ccc(O)cc1)C(=O)N[C@H](Cc1c[nH]c2ccccc12)C(=O)N[C@H](CCCN)C(=O)N[C@@H](CCCN)C(=O)NCC(=O)N[C@H](CCCN)C(=O)N[C@@H](Cc1c[nH]c2ccccc12)C(=O)N[C@H](C(N)=O)[C@@H](C)O [ΔI10-G13, FA-sywoOGoWT-CONH2] ({Octanoyl(7-Me)}-[dS][dY][dW][dOrn][Orn]G[dOrn]WT-NH2)	16 (≈ 12.5 µM)
C=CCOC(=O)NC[C@H](NC(=O)[C@H](Cc1c[nH]c2ccccc12)NC(=O)[C@@H](CCCN)NC(=O)CNC(=O)[C@H](CCCN)NC(=O)[C@@H](CCCN)NC(=O)[C@@H](Cc1c[nH]c2ccccc12)NC(=O)[C@@H](Cc1ccc(O)cc1)NC(=O)[C@@H](CO)NC(=O)CCCCCC(C)C)C(=O)N[C@H](C(=O)N[C@@H](CC(N)=O)C(=O)NCC(=O)NCC(=O)O)[C@@H](C)CC [Dap(Alloc)9-COOH] ({Octanoyl(7-Me)}-[dS][dY][dW][dOrn][Orn]G[dOrn]W[Dap](Alloc)INGG-OH)	2 (≈ 1.18 µM)
CC[C@H](C)[C@H](NC(=O)[C@H](CN)NC(=O)[C@H](Cc1c[nH]c2ccccc12)NC(=O)[C@@H](CCCN)NC(=O)CNC(=O)[C@H](CCCN)NC(=O)[C@@H](CCCN)NC(=O)[C@@H](Cc1c[nH]c2ccccc12)NC(=O)[C@@H](Cc1ccc(O)cc1)NC(=O)[C@@H](CO)NC(=O)CCCCCC(C)C)C(=O)N[C@@H](CC(N)=O)C(=O)NCC(=O)NCC(N)=O [Dap9-CONH2] ({Octanoyl(7-Me)}-[dS][dY][dW][dOrn][Orn]G[dOrn]W[Dap]INGG-NH2)	4 (≈ 2.49 µM)
C=CCOC(=O)NC[C@H](NC(=O)[C@H](Cc1c[nH]c2ccccc12)NC(=O)[C@@H](CCCN)NC(=O)CNC(=O)[C@H](CCCN)NC(=O)[C@@H](CCCN)NC(=O)[C@@H](Cc1c[nH]c2ccccc12)NC(=O)[C@@H](Cc1ccc(O)cc1)NC(=O)[C@@H](CO)NC(=O)CCCCCC(C)C)C(=O)N[C@H](C(=O)N[C@@H](CC(N)=O)C(=O)NCC(N)=O)[C@@H](C)CC [ΔG13-Dap(Alloc)9-isoC9] ({Octanoyl(7-Me)}-[dS][dY][dW][dOrn][Orn]G[dOrn]W[Dap](Alloc)ING-NH2)	2 (≈ 1.22 µM)

same assay, conditions: in vitro activity quoted in the in vivo section

Compound	MIC values against E. coli ATCC 25922 [µg/mL]
polymyxin B [reference compound]	0.5
